According to patent US6287572A, “Anti-HIV peptides and proteins” (Oxford Biomedica (UK) Limited, priority 1997, dated 2001):
“Also recorded” adds a separate entry of the source.

How the values were obtained:
[1] = test system: HIV-1; settings: Neidrig et al 1994; cited from earlier work
[2] = test system: HIV-1IIIB virus; assay: Peptide inhibition experiment, U937 culture; assay type: cell-based; settings: peptide 200 mg/ml, RT activity in supernatant
Experimental: (§1) A series of overlapping p17 derived 1 5mer peptides were used. The peptides were dissolved in phosphate-buffered saline pH 7.0 and used at a final concentration of 200 mg/ml. For each peptide, 2×10^5 U937 cells were pelleted and resuspended in […] media containing […] of a stock of HIV-1IIIB virus (giving a multiplicity of infection of 0.25) and 200 mg/ml of the appropriate peptide. Following incubation for two days, the cells were pelleted and resuspended in fresh media containing peptide. After a further three days incubation, […] of the culture was removed and added to 1×10^5 C8166 cells in a total volume of […] with the appropriate peptide. Samples of both the U937 and C8166 culture supernatants were taken after a further two and three days incubation and assayed for RT activity. In addition, the C8166 cells were visually inspected for the appearance of syncytia on day three.

[3] = test system: HIV-1IIIB virus; assay: Peptide inhibition experiment, C8166 culture; assay type: cell-based; settings: peptide 200 mg/ml, RT activity in supernatant
Experimental: as §1

Substance	inhibitory activity of peptide in previous studies [1]	RT titer, U937 day 7 ([2]; day 7)	RT titer, U937 day 8 ([2]; day 8)	RT titer, C8166 day 2 ([3]; day 2)	RT titer, C8166 day 3 ([3]; day 3)
23 to 46: p17 peptide spanning residues 23 to 46 of previous studies (Neidrig et al 1994) (GGKKKYKLKHIVWASRELERFAVN; Matrix protein p17; UniProt P04591 24-47, looked up, fragment)	no inhibitory activity; also recorded: no inhibitory effect				
47 to 59: inhibitory p17 peptide spanning residues 47 to 59 of previous studies (Neidrig et al 1994) (PGLLETSEGCRQI; Matrix protein p17; UniProt P04591 48-60, looked up, fragment)	inhibitory				
51-65: p17-derived 15mer peptide, corresponding p17 residues 51-65 (ETSEGCRQILGQLQP; Matrix protein p17; UniProt P04591 52-66, looked up, fragment) [Mutant 51-65]		14.8 × 10^3 cpm/ml	47.0 × 10^3 cpm/ml	19.9 × 10^3 cpm/ml	33.6 × 10^3 cpm/ml
